Test results taken from ChEMBL document CHEMBL1134074, “Identification of novel potent hydroxamic acid inhibitors of peptidyl deformylase and the importance of the hydroxamic acid functionality on inhibition” (Bioorg Med Chem Lett, 2001).
In brackets after ≈: the same amount, converted by molar mass.

Tests used:
[1] = tested on: Staphylococcus epidermidis; experiment: Antibacterial activity against Staphylococcus epidermidis (SEPI) 12084; type: functional
[2] = tested on: Staphylococcus aureus; experiment: Antibacterial activity against Staphylococcus aureus (SAUR) 9218; type: functional
[3] = tested on: Streptococcus pneumoniae; experiment: Antibacterial activity against Streptococcus pneumoniae (SPNE) 9912; type: functional
[4] = target: T1, Peptide deformylase (Staphylococcus aureus subsp. aureus Mu50, UniProt P68825); experiment: Inhibition of Peptidyl deformylase (PDF)
T1 sequence (P68825 whole entry): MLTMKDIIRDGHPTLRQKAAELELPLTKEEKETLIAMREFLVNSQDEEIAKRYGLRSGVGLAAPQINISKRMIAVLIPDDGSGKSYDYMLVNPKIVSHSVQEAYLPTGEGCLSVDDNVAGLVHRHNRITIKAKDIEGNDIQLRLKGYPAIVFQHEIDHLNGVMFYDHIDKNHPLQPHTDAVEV

[5] = tested on: Escherichia coli; experiment: Antibacterial activity against Escherichia coli (ECOL) 6674; type: functional

SMILES | MIC [1] [µg/mL] | MIC [2] [µg/mL] | MIC [3] [µg/mL] | IC50 [4] [µM] | MIC [5] [µg/mL]
O=C(NO)C(NCc1cccc(C(F)(F)F)c1)c1ccccc1F (stereo unspecified) | > 128 | > 128 | > 128 | 0.46 | > 128
O=C(Cc1ccc(-c2ccccc2)cc1)NO | > 128 | > 128 | > 128 | > 50 | > 128
O=C(NO)C(NCc1cccc(C(F)(F)F)c1)c1cccc2ccccc12 (stereo unspecified) | > 64 | > 64 | > 64 |  | > 64
O=C(NO)N(CCc1cccc(C(F)(F)F)c1)c1cccc2ccccc12 | 32 (≈ 85.5 µM) | 32 (≈ 85.5 µM) | 32 (≈ 85.5 µM) |  | > 128
NC(=O)C(NCc1cccc(C(F)(F)F)c1)c1cccc2ccccc12 (stereo unspecified) | 64 (≈ 179 µM) | 64 (≈ 179 µM) | 16 (≈ 44.6 µM) | > 100 | > 128
NNC(=O)N(CCc1cccc(C(F)(F)F)c1)c1cccc2ccccc12 | > 128 | > 128 | > 128 | > 100 | > 128
O=C(CO)N(CCc1cccc(C(F)(F)F)c1)c1cccc2ccccc12 | > 128 | 32 (≈ 85.7 µM) | 32 (≈ 85.7 µM) | > 100 | > 128
COc1cc(Cl)c(CC(=O)NO)cc1OC | > 32 | > 32 | > 32 |  | > 32
NNC(=O)C(NCc1cccc(C(F)(F)F)c1)c1cccc2ccccc12 (stereo unspecified) | 128 (≈ 343 µM) | 64 (≈ 171 µM) | 32 (≈ 85.7 µM) | 4.1 | > 128
O=C(NO)C(NCc1cccc(C(F)(F)F)c1)c1ccc(F)c(F)c1 (stereo unspecified) | > 128 | > 128 | > 128 | 0.69 | > 128
O=C(O)C(NCc1cccc(C(F)(F)F)c1)c1cccc2ccccc12 (stereo unspecified) | > 128 | > 128 | 128 (≈ 356 µM) | > 100 | > 128
O=C(CS)N(CCc1cccc(C(F)(F)F)c1)c1cccc2ccccc12 | > 128 | > 128 | > 128 | > 100 | > 128
CC(=O)NO [ACETOHYDROXAMIC ACID] | > 128 | > 128 | > 128 | > 100 | > 128
COc1cccc(C(NCc2cccc(C(F)(F)F)c2)C(=O)NO)c1 (stereo unspecified) | > 128 | > 128 | > 128 |  | > 128
